Measured values published in PubChem BioAssay (NCI).
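Method: 48-hour compound exposure of cells in 96-well plates, five concentrations, linear interpolation of endpoints. GI50: concentration for 50% inhibition of growth. TGI marks complete inhibition of growth.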

How the values were obtained:
Test in all cases: inhibition of tumour cell growth, NCI panel, 48 h
[1] = tested on: SK-MEL-28 melanoma
[2] = tested on: UACC-62 melanoma
[3] = tested on: T-47D breast
[4] = tested on: LOX IMVI melanoma
[5] = tested on: EKVX NSCLC
[6] = tested on: M14 melanoma
[7] = tested on: SF-539 CNS
[8] = tested on: TK-10 renal
[9] = tested on: SW-620 colon
[10] = tested on: ACHN renal
[11] = tested on: COLO 205 colon
[12] = tested on: MCF7 breast
[13] = tested on: NCI-H23 lung
[14] = tested on: HCT-15 colon
[15] = tested on: SF-295 CNS
[16] = tested on: OVCAR-8 ovarian
[17] = tested on: NCI/ADR-RES ovarian
[18] = tested on: HCC-2998 colon
[19] = tested on: U251 CNS
[20] = tested on: NCI-H522 lung
[21] = tested on: RXF 393 renal
[22] = tested on: 786-0 renal
[23] = tested on: OVCAR-3 ovarian
[24] = tested on: SNB-75 CNS
[25] = tested on: RPMI-8226 leukemia
[26] = tested on: OVCAR-5 ovarian
[27] = tested on: SK-MEL-2 melanoma
[28] = tested on: NCI-H460 lung
[29] = tested on: OVCAR-4 ovarian
[30] = tested on: HT29 colon
[31] = tested on: UACC-257 melanoma
[32] = tested on: HOP-92 NSCLC
[33] = tested on: MDA-MB-231 breast
[34] = tested on: SF-268 CNS
[35] = tested on: SNB-19 CNS
[36] = tested on: IGROV1 ovarian
[37] = tested on: PC-3 prostate
[38] = tested on: MDA-MB-435
[39] = tested on: SK-MEL-5 melanoma
[40] = tested on: NCI-H226 lung
[41] = tested on: DU-145 prostate
[42] = tested on: SN12C renal
[43] = tested on: BT-549 breast
[44] = tested on: HOP-62 NSCLC
[45] = tested on: A549 NSCLC
[46] = tested on: CAKI-1 renal
[47] = tested on: KM12 colon
[48] = tested on: HCT-116 colon
[49] = tested on: HS 578T breast
[50] = tested on: MOLT-4 leukemia
[51] = tested on: MALME-3M melanoma
[52] = tested on: SK-OV-3 ovarian
[53] = tested on: CCRF-CEM leukemia
[54] = tested on: A498 renal
[55] = tested on: UO-31 renal
[56] = tested on: HL-60(TB) leukemia

## Cc1ncc(C(=O)Nc2ccc(CN3CCN(C)CC3)c(C(F)(F)F)c2)cc1C#Cc1c(N)ncc2ccc(F)cc12
[1]
  GI50: 415 nM
  TGI: 1230 nM
[2]
  GI50: 282 nM
  TGI: 2840 nM
[3]
  GI50: 4.1 µM
  TGI: 16.3 µM
[4]
  GI50: 184 nM
  TGI: 841 nM
[5]
  GI50: 1540 nM
  TGI: 9.37 µM
[6]
  GI50: 128 nM
  TGI: 690 nM
[7]
  GI50: 624 nM
  TGI: 1300 nM
[8]
  GI50: 715 nM
  TGI: 1520 nM
[9]
  GI50: 274 nM
  TGI: 1070 nM
[10]
  GI50: 374 nM
  TGI: 3.23 µM
[11]
  GI50: 197 nM
  TGI: 1230 nM
[12]
  GI50: 503 nM
  TGI: 1330 nM
[13]
  GI50: 596 nM
  TGI: 1370 nM
[14]
  GI50: 559 nM
  TGI: 3.15 µM
[15]
  GI50: 3.45 µM
  TGI: 11.3 µM
[16]
  GI50: 931 nM
  TGI: 2410 nM
[17]
  GI50: 1260 nM
  TGI: 4.25 µM
[18]
  GI50: 1010 nM
  TGI: 7.81 µM
[19]
  GI50: 826 nM
  TGI: 1580 nM
[20]
  GI50: 668 nM
  TGI: 1830 nM
[21]
  GI50: 608 nM
  TGI: 1290 nM
[22]
  GI50: 756 nM
  TGI: 1560 nM
[23]
  GI50: 789 nM
  TGI: 1540 nM
[24]
  GI50: 774 nM
  TGI: 2270 nM
[25]
  GI50: 673 nM
  TGI: 2170 nM
[26]
  GI50: 669 nM
  TGI: 3.03 µM
[27]
  GI50: 1050 nM
  TGI: 5.77 µM
[28]
  GI50: 643 nM
  TGI: 1470 nM
[29]
  GI50: 2600 nM
  TGI: 10.8 µM
[30]
  GI50: 68.9 nM
  TGI: 651 nM
[31]
  GI50: 649 nM
  TGI: 3.22 µM
[32]
  GI50: 48.9 nM
  TGI: 468 nM
[33]
  GI50: 129 nM
  TGI: 743 nM
[34]
  GI50: 717 nM
  TGI: 2500 nM
[35]
  GI50: 787 nM
  TGI: 1490 nM
[36]
  GI50: 301 nM
  TGI: 6.27 µM
[37]
  GI50: 870 nM
  TGI: 3.14 µM
[38]
  GI50: 170 nM
  TGI: 1040 nM
[39]
  GI50: 678 nM
  TGI: 1530 nM
[40]
  GI50: 624 nM
  TGI: 3.65 µM
[41]
  GI50: 692 nM
  TGI: 1390 nM
[42]
  GI50: 422 nM
  TGI: 3.05 µM
[43]
  GI50: 1490 nM
  TGI: 4.12 µM
[44]
  GI50: 1180 nM
  TGI: 8.18 µM
[45]
  GI50: 631 nM
  TGI: 1440 nM
[46]
  GI50: 1050 nM
  TGI: 6.16 µM
[47]
  GI50: 5 nM
  TGI: 646 nM
[48]
  GI50: 176 nM
  TGI: 873 nM
[49]
  GI50: 588 nM
  TGI: 2740 nM
[50]
  GI50: 579 nM
  TGI: 1740 nM
[51]
  GI50: 105 nM
  TGI: 601 nM
[52]
  GI50: 4.79 µM
  TGI: 12 µM
[53]
  GI50: 809 nM
  TGI: 2140 nM
[54]
  GI50: 930 nM
  TGI: 1740 nM
[55]
  GI50: 602 nM
  TGI: 2800 nM
[56]
  GI50: 319 nM
  TGI: 2060 nM
